Here are results for two molecules from US9498486B1, “Method for controlled release oral dosage of a vitamin D compound” (OPKO RENAL, LLC, priority 2007, dated 2016).

Series [1] can be described thus: Expected rise in serum 25-hydroxyvitamin D3 in a human after a single dose. Format: in vivo. The note with it: single dose of 50 μg to a human (about 60 kg).
Series [2] is described as follows: Example 1: single-dose pharmacokinetics of serum 25-hydroxyvitamin D3 in miniature swine. Format: in vivo. Particulars: Yucatan miniature swine. How it is done: Nine oral vitamin D formulations were prepared according to Table 3 below by homogeneously mixing the identified components in the amounts shown and filling the mixtures into hard gelatin capsules. Formulation 9 is an immediate-release formulation according to the prior art, wherein MIGLYOL 812N is the trade name for caprylic/capric triglycerides, available from CONDEA Chemie GmbH of Cranford, N.J., USA. […] Each group included five animals.
Blood was collected pre-dose, and at 0.5, 1, 2, 4, 6, 8, 12, 24, 48, 96, 168, 240, 336, 432, 504, 576, and 672 hours post dosing. Serum 25-hydroxyvitamin D3 levels were assayed by Liquid Chromatography/Mass Spectrometry/Mass Spectrometry (LC MS/MS).

The mark [3] stands for this setting: 250 μg via intravenous injection, AVG.

SMILES strings stand for the structures.

As for `C=C1CC[C@H](O)C/C1=C/C=C1\CCC[C@]2(C)[C@@H]([C@H](C)CCCC(C)(C)O)CC[C@@H]12` [25-hydroxyvitamin D3], the “expected increase in serum levels of 25-hydroxyvitamin D3” value in series [1] is “about 1.4 ng/ml”.
In the case of `C=C1CC[C@H](O)C/C1=C/C=C1\CCC[C@]2(C)[C@@H]([C@H](C)CCCC(C)(C)O)CC[C@@H]12` [Group 10, 25-hydroxyvitamin D3], the “AUC (0-672 hr)” value in series [2] (250 μg 25-hydroxyvitamin D3 via intravenous injection, AVG) came to 15038.0 ng·h/mL. For the same molecule, in series [2] (250 μg via intravenous injection), the BA is 100.0%. Further, in series [2] (setting [3]), the “AUC (0-INF)” value is 16616.1 ng·h/mL, the Cmax is 154.9 ng/mL, the T1/2 turned out to be 132.4 h and the Tmax worked out at 1.5 h.

As usually defined, the Cmax is the maximum level reached in the sampled fluid or tissue. A word on the Tmax: it is the time from dosing to the highest level.
